Test results published in patent US12545672B2, “Antibiotic compounds, methods of manufacturing the same, pharmaceutical compositions containing the same and uses thereof” (Debiopharm International S.A., priority 2018, dated 2026).
Like-named read-outs stand apart in the source and are kept apart here.

Tests used:
[1] = target: Neisseria gonorrhoeae FabI (Neisseria gonorrhoeae, UniProt A0ACH0F547); assay: Neisseria gonorrhoeae FabI inhibition assay (NADH consumption)
[2] = Prediction of hepatic extraction ratio from liver microsome stability; type: in vitro ADME; conditions: human liver microsomes, Well-Stirred model
Neisseria gonorrhoeae = assay: MIC50 by CLSI agar dilution on a panel of N. gonorrhoeae clinical isolates; type: cell-based
Method: MIC50: MICs were determined in accordance with the appropriate Clinical and Laboratory Standards Institute (CLSI) methodology by the agar dilution susceptbility testing method in GC agar base.

[3] = Mouse cassette PK and oral bioavailability determination; type: in vivo, Female BALB/c mice; conditions: iv 1 mg/kg, po 2 mg/kg, cassette dosing; for bioavailability: female, BALB/c, mouse, plasma, read-out: Mouse F (%)
Method: Dose volumes were 5 ml/kg and 10 ml/kg for IV and oral administration, respectively. Compounds were co-formulated in a 10% DMSO (v/v) and 40% Captisol (w/v) in saline solution formulation (up to 3 compounds in a cassette). […] Tmax, Cmax, AUC, clearance, volume of distribution and oral bioavailability were estimated from the plasma concentrations using non-compartmental pharmacokinetic models. In particular, oral bioavailability (F %) was defined as F=(Doseiv*AUCpo)/(Dosepo*AUCiv)*100

[4] = target: Chlamydia trachomatis FabI (Chlamydia trachomatis serovar D (strain ATCC VR-885 / DSM 19411 / UW-3/Cx), UniProt O84106); assay: Chlamydia trachomatis FabI inhibition assay (NADH consumption); conditions: read-out: CT FABI IC50; recombinant C. trachomatis FabI, 30° C., pH 7.0
Sequence of Chlamydia trachomatis FabI (O84106 1-298): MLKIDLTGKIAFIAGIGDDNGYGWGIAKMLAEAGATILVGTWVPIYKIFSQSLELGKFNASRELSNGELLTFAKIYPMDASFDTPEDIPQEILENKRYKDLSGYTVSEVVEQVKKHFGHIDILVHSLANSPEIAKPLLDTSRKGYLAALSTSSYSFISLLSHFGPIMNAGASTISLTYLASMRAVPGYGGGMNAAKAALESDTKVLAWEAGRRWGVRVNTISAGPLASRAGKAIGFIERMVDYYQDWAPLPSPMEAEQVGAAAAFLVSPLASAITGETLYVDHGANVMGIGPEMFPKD

[5] = Caco-2 permeability assay; type: in vitro ADME; conditions: human, Caco-2; A2B, 120 min incubation
Method: (§1) Caco-2 assay: Compounds were incubated in a Caco-2 24-transwell system (Solvo Biotechnologies, Hungary) for 120 min, after which samples were taken from the donor and acceptor compartments of the transwell system. The integrity of each cell monolayer was controlled by measuring transepithelial electrical resistance (TEER) before the experiment. Lucifer yellow permeability (B to A) was also tested as a control on the same plate (all wells) after the actual experiment. The samples were analyzed using UPLC/MS/MS. The permeation of the compounds was monitored using relative LC/MS/MS peak areas (initial donor solution sample=100%).

Caco-2 = Caco-2 permeability assay; type: in vitro ADME; conditions: 120 min incubation
Method: as §1

[6] = Neisseria gonorrhoeae, agar dilution, GC agar base, minimum of 15 clinical isolates, read-out: MIC50

Sequence of Neisseria gonorrhoeae FabI (A0ACH0F547 1-261): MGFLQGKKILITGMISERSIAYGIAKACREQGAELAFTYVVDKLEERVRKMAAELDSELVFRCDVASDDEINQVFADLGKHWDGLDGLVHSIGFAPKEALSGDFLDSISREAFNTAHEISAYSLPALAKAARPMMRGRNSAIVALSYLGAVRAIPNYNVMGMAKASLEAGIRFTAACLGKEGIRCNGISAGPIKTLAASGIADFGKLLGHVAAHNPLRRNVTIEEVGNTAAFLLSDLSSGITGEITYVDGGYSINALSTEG

IC50 [1]	Predict Human hep ER [2]	MIC50 (Neisseria gonorrhoeae; [6])	bioavailability [3]	Papp A→B at 120 min [5]	Compound	IC50 [4]	MIC50 (Neisseria gonorrhoeae; Neisseria gonorrhoeae)	Caco-2 Papp A2B (Caco-2)	IC50 ([1]; read-out: ngFabI IC50, recombinant N. gonorrhoeae FabI, 30° C., pH 7.2)	MIC50 (Neisseria gonorrhoeae; agar dilution, GC agar base, minimum of 15 clinical isolates)	Mouse F (%) [3]
< 10 nM	0.07	< 1 µg/mL	44%	–	Cc1oc2c(Oc3ccc4c(c3)OCO4)cccc2c1CN(C)C(=O)/C=C/c1cnc2c(c1)NC[C@@](C)(O)C(=O)N2 [Compound 176, (R,E)-N-((7-(benzo[d][1,3]dioxol-5-yloxy)-2-methylbenzofuran-3-yl)methyl)-3-(3-hydroxy-3-methyl-4-oxo-2,3,4,5-tetrahydro-1H-pyrido[2,3-b][1,4]diazepin-8-yl)-N-methylacrylamide]	–	–	–	–	–	–
< 10 nM	0.13	< 1 µg/mL	13%	–	COc1cc(Oc2ccc(C3=C[C@H]4CN(C(=O)/C=C/c5cnc6c(c5)NCCC(=O)N6)C[C@H]4C3)cc2)ccc1C#N [Compound 140, 2-methoxy-4-(4-((3rS,6rR)-2-((E)-3-(4-oxo-2,3,4,5-tetrahydro-1H-pyrido[2,3-b][1,4]diazepin-8-yl)acryloyl)-1,2,3,3r,4,6r-hexahydrocyclopenta[c]pyrrol-5-yl)phenoxy)benzonitrile]	–	–	–	–	–	–
< 10 nM	0.43	< 1 µg/mL	9%	–	Cc1oc2c(Oc3ccc4c(c3)N(C)CC4)cccc2c1CN(C)C(=O)/C=C/c1cnc2c(c1)NCCC(=O)N2 [Compound 134, (E)-N-Methyl-N-((2-methyl-7-((1-methylindolin-6-yl)oxy)benzofuran-3-yl)methyl)-3-(4-oxo-2,3,4,5-tetrahydro-1H-pyrido[2,3-b][1,4]diazepin-8-yl)acrylamide]	–	–	–	–	–	–
< 10 nM	0.1	< 1 µg/mL	–	–	Cc1oc2c(N)cccc2c1CN(C)C(=O)/C=C/c1cnc2c(c1)N[C@H](C)[C@H](O)C(=O)N2 [Compound 290, (E)-N-((7-amino-2-methylbenzofuran-3-yl)methyl)-3-((2R,3S)-3-hydroxy-2-methyl-4-oxo-2,3,4,5-tetrahydro-1H-pyrido[2,3-b][1,4]diazepin-8-yl)-N-methylacrylamide]	–	–	–	–	–	–
< 10 nM	0.28	< 1 µg/mL	18%	3.4 ×10⁻⁶ cm/s	Cc1c(CN(C)C(=O)/C=C/c2cnc3c(c2)NCC2(CC(O)C2)C(=O)N3)oc2ccccc12 (stereo not shown) [Compound 115, (E)-3-(3-Hydroxy-4′-oxo-1′,2′,4′,5′-tetrahydrospiro[cyclobutane-1,3′-pyrido[2,3-b][1,4]diazepin]-8′-yl)-N-methyl-N-((3-methylbenzofuran-2-yl)methyl)acrylamide]	–	–	–	–	–	–
< 10 nM	0.34	< 1 µg/mL	–	–	Cc1oc2c(N)cccc2c1CN(C)C(=O)/C=C/c1cnc2c(c1)NC(C)(C)C(=O)N2 [Compound 287, (E)-N-((7-amino-2-methylbenzofuran-3-yl)methyl)-3-(2,2-dimethyl-3-oxo-1,2,3,4-tetrahydropyrido[2,3-b]pyrazin-7-yl)-N-methylacrylamide]	–	–	–	–	–	–
< 10 nM	0.08	< 1 µg/mL	–	–	Cc1oc2c(Oc3ccc4c(c3)OCO4)cccc2c1CN(C)C(=O)/C=C/c1cnc2c(c1)NCCC(=O)N2 [Compound 119, (E)-N-((7-(Benzo[d][1,3]dioxol-5-yloxy)-2-methylbenzofuran-3-yl)methyl)-N-methyl-3-(4-oxo-2,3,4,5-tetrahydro-1H-pyrido[2,3-b][1,4]diazepin-8-yl)acrylamide]	–	–	–	–	–	–
< 10 nM	0.02	< 1 µg/mL	26%	–	COc1cccc(Oc2ccc(C3=C[C@H]4CN(C(=O)/C=C/c5cnc6c(c5)NCCC(=O)N6)C[C@H]4C3)cc2)c1 [Compound 129, 8-((E)-3-((3rS,6rR)-5-(4-(3-methoxyphenoxy)phenyl)-3,3r,4,6r-tetrahydrocyclopenta[c]pyrrol-2(1H)-yl)-3-oxoprop-1-en-1-yl)-1,2,3,5-tetrahydro-4H-pyrido[2,3-b][1,4]diazepin-4-one]	–	–	–	–	–	–
< 10 nM	0.2	< 1 µg/mL	16%	–	O=C1CCNc2cc(/C=C/C(=O)N3C[C@H]4CC(c5ccc(Oc6cncs6)cc5)=C[C@H]4C3)cnc2N1 [Compound 96, 8-((E)-3-Oxo-3-((3aS,6aR)-5-(4-(thiazol-5-yloxy)phenyl)-3,3a,4,6a-tetrahydrocyclopenta[c]pyrrol-2(1H)-yl)prop-1-en-1-yl)-1,2,3,5-tetrahydro-4H-pyrido[2,3-b][1,4]diazepin-4-one]	–	–	–	–	–	–
< 10 nM	–	< 1 µg/mL	43%	–	Cc1oc2c(N)cccc2c1CN(C)C(=O)/C=C/c1cnc2c(c1)NC[C@H](O)C(=O)N2 [Compound 276, (S,E)-N-((7-amino-2-methylbenzofuran-3-yl)methyl)-3-(3-hydroxy-4-oxo-2,3,4,5-tetrahydro-1H-pyrido[2,3-b][1,4]diazepin-8-yl)-N-methylacrylamide]	–	–	–	–	–	–

Compound	IC50 [1]	Predict Human hep ER [2]	MIC50 (Neisseria gonorrhoeae; [6])	bioavailability [3]	Papp A→B at 120 min [5]	IC50 [4]	MIC50 (Neisseria gonorrhoeae; Neisseria gonorrhoeae)	Caco-2 Papp A2B (Caco-2)	IC50 ([1]; read-out: ngFabI IC50, recombinant N. gonorrhoeae FabI, 30° C., pH 7.2)	MIC50 (Neisseria gonorrhoeae; agar dilution, GC agar base, minimum of 15 clinical isolates)	Mouse F (%) [3]
Cc1c(CN(C)C(=O)/C=C/c2cnc3c(c2)NC[C@H](O)C(=O)N3)oc2cccc(N)c12 [Compound 275, (E)-N-[(4-Amino-3-methyl-benzofuran-2-yl)methyl]-3-[(3S)-3-hydroxy-4-oxo-1,2,3,5-tetrahydropyrido[2,3-b][1,4]diazepin-8-yl]-N-methyl-prop-2-enamide]	< 10 nM	–	< 1 µg/mL	51%	–	< 5000 nM	–	–	–	–	–
Cc1oc2c(Oc3ccc(C#N)cc3)cccc2c1CN(C)C(=O)/C=C/c1cnc2c(c1)NCCC(=O)N2 [Compound 80, (E)-N-((7-(4-cyanophenoxy)-2-methylbenzofuran-3-yl)methyl)-N-methyl-3-(4-oxo-2,3,4,5-tetrahydro-1H-pyrido[2,3-b][1,4]diazepin-8-yl)acrylamide]	< 10 nM	0.25	–	35%	–	–	< 1 µg/mL	–	–	–	–
O=C1CCNc2cc(/C=C/C(=O)N3C[C@H]4CC(c5ccc(Oc6ccncc6)cc5)=C[C@H]4C3)cnc2N1 (racemic) [Compound 90, 8-((E)-3-Oxo-3-((3rS,6rR)-5-(4-(pyridin-4-yloxy)phenyl)-3,3r,4,6r-tetrahydrocyclopenta[c]pyrrol-2(1H)-yl)prop-1-en-1-yl)-1,2,3,5-tetrahydro-4H-pyrido[2,3-b][1,4]diazepin-4-one]	–	0.03	–	–	–	–	–	10.7 10−6 cm/s	< 10 nM	<1 µg/mL	7%
COc1cccc(Oc2cccc3c(CN(C)C(=O)/C=C/c4cnc5c(c4)NCCC(=O)N5)c(C)oc23)c1 [Compound 155, (E)-N-((7-(3-methoxyphenoxy)-2-methylbenzofuran-3-yl)methyl)-N-methyl-3-(4-oxo-2,3,4,5-tetrahydro-1H-pyrido[2,3-b][1,4]diazepin-8-yl)acrylamide]	< 10 nM	0.32	< 1 µg/mL	28%	–	< 1000 nM	–	–	–	–	–
